Measurements published in patent publication US6638921B1, “Pyridoxal-5-phosphate derivatives as HIV integrase inhibitors” (Pharmacor Inc., priority 2002, dated 2003).
Structures can show the parent of a compound that is named as a salt. Where two headings read alike, the source gives them in different places.

Legend:
[1] = system: HIV-1 laboratory viral strain NL4.3; test: Anti-viral assay in vitro (MTT, infected MT-4 cells); format: cell-based; details: reduce virus replication in cell culture by 50%, six days
Protocol: (§1) To evaluate the EC50 of our compounds, various drug concentrations are incubated with the infected cell for six days and then the metabolic activity of the cells is monitored by the MTT assay. (See A. J. Japour et al, Antimicrobial Agents and Chemotherapy, 37, 1095-1101, 1993 and R. Pauwels et al. Journal of Virological Methods, 20, 309-321, 1988).
(§2) We use the laboratory viral strain NL4.3 as wild type virus and the cell line used is MT-4 which is a T-cell line highly sensitive to HIV-1. We also use some WT clinical strains. To address the resistance issue we assay the inhibitors with NL4.3 mutants which are designed to be resistant to specific commercially available inhibitors. The following reagents were obtained through the AIDS Research and Reference Reagent Program, division of AIDS, NIAID, NIH: pNL4.3 from Dr. Malcolm Martin; MT-4 cell line from Dr. Douglas Richman. Wild type (WT) clinical strains were obtained from “Laboratoire de santé publique du Québec”.

MT-4 cell line = test: Cytotoxicity assay in vitro (MTT, virus omitted); format: cell-based
Protocol: as §1, §2
The same MTT assay is used to evaluate the CCIC50 of our compounds except that the virus is omitted.

HIV-1 integrase = HIV-1 integrase (Human immunodeficiency virus type 1 group M subtype B, UniProt P12497); test: HIV-1 integrase inhibition assay in vitro (radiolabeled duplex substrate, U5 end of HIV LTR); format: biochemical
Protocol: For the purpose of Table 1, the HIV-1 integrase inhibition assay was carried out following a known procedure (Burke, Jr. T. R. et al., J. Med. Chem. 38, 4171-4178 (1995)). A suitable radiolabeled duplex substrate corresponding to the U5 end of the HIV LTR was used.

[2] = Human immunodeficiency virus 1, MT4, 144 h
[3] = IC50, concentration of drug required to reduce the enzyme activity by 50%

## Cc1nc(N=Nc2ccc(S(=O)(=O)N3CCCCC3)cc2)c(COP(=O)(O)O)c(C=O)c1O [Example 7, 6-[4-(1-Piperidinesulfonyl)phenylazo]-pyridoxal-5-phosphate]
[1]; [2]
  EC50: 12.5 µM
MT-4 cell line; human, 6 days
  CCIC50: >100 µM
HIV-1 integrase; [3]
  IC50: 2.5 µM

## Cc1nc(N=Nc2cccc(S(=O)(=O)NC(C)(C)C)c2)c(COP(=O)(O)O)c(C=O)c1O [Example 9, 6-[3-(tert-Butylsulfamoyl)phenylazo]-pyridoxal-5-phosphate]
[1]; [2]
  EC50: 15 µM
MT-4 cell line; human, 6 days
  CCIC50: 57 µM
HIV-1 integrase; [3]
  IC50: 3 µM

## Cc1nc(N=Nc2cccc(C(=O)NCC(C)C)c2)c(COP(=O)(O)O)c(C=O)c1O [Example 13, 6-[3-(Isobutylcarbamoyl)phenylazo]-pyridoxal-5-phosphate]
[1]; [2]
  EC50: 50 µM
MT-4 cell line; human, 6 days
  CCIC50: 90 µM
HIV-1 integrase; [3]
  IC50: 1.3 µM

## Cc1nc(N=Nc2ccc(S(=O)(=O)Nc3nccs3)cc2)c(COP(=O)(O)O)c(C=O)c1O [Example 24, 6-[4-(2-Thiazolylsulfamoyl)phenylazo]-pyridoxal-5-phosphate]
[1]; [2]
  EC50: 23 µM
MT-4 cell line; human, 6 days
  CCIC50: >100 µM
HIV-1 integrase; [3]
  IC50: 0.365 µM

## Cc1nc(N=Nc2ccc(S(=O)(=O)Nc3ncccn3)cc2)c(COP(=O)(O)O)c(C=O)c1O [Example 25, 6-[4-(2-Pyrimidylsulfamoyl)phenylazo]-pyridoxal-5-phosphate]
[1]; [2]
  EC50: 4.3 µM
MT-4 cell line; human, 6 days
  CCIC50: >100 µM
HIV-1 integrase; [3]
  IC50: 0.3 µM

## Cc1nc(N=Nc2cccc(S(=O)(=O)N3CCOCC3)c2)c(COP(=O)(O)O)c(C=O)c1O [Example 27, 6-[3-(Morpholinesulfamoyl)phenylazo]-pyridoxal-5-phosphate]
[1]; [2]
  EC50: 27.5 µM
MT-4 cell line; human, 6 days
  CCIC50: >100 µM
HIV-1 integrase; [3]
  IC50: 1.1 µM

## Cc1nc(N=Nc2cccc(C(=O)Nc3cccnc3)c2)c(COP(=O)(O)O)c(C=O)c1O [Example 28, 6-[3-(3-Pyridylcarbamoyl)phenylazo]-pyridoxal-5-phosphate]
[1]; [2]
  EC50: 6.25 µM
MT-4 cell line; human, 6 days
  CCIC50: 50 µM
HIV-1 integrase; [3]
  IC50: 3.25 µM

## Cc1nc(N=Nc2cccc(C(=O)Nc3ccccn3)c2)c(COP(=O)(O)O)c(C=O)c1O [Example 29, 6-[3-(2-Pyridylcarbamoyl)phenylazo]-pyridoxal-5-phosphate]
[1]; [2]
  EC50: 24 µM
MT-4 cell line; human, 6 days
  CCIC50: >100 µM
HIV-1 integrase; [3]
  IC50: 3.85 µM

## Cc1nc(N=Nc2cccc(C(=O)Nc3ccncc3)c2)c(COP(=O)(O)O)c(C=O)c1O [Example 30, 6-[3-(4-Pyridylcarbamoyl)phenylazo]-pyridoxal-5-phosphate]
[1]; [2]
  EC50: 20 µM
MT-4 cell line; human, 6 days
  CCIC50: 87 µM
HIV-1 integrase; [3]
  IC50: 3.15 µM

## Cc1nc(N=Nc2cccc(C(=O)Nc3cccc4cnccc34)c2)c(COP(=O)(O)O)c(C=O)c1O [Example 31, 6-[3-(5-Isoquinolylcarbamoyl)phenylazo]-pyridoxal-5-phosphate]
[1]; [2]
  EC50: 15 µM
MT-4 cell line; human, 6 days
  CCIC50: >100 µM
HIV-1 integrase; [3]
  IC50: 3.25 µM

## Cc1nc(N=Nc2cccc(C(=O)Nc3cccc4c3CCCN4)c2)c(COP(=O)(O)O)c(C=O)c1O [Example 37, 6-[3-(5-(1,2,3,4-Tetrahydroquinolyl)carbamoyl)phenylazo]-pyridoxal-5-phosphate]
[1]; [2]
  EC50: 26 µM
MT-4 cell line; human, 6 days
  CCIC50: 84 µM
HIV-1 integrase; [3]
  IC50: 3.3 µM

## Cc1ccc(C(=O)O)cc1N=Nc1nc(C)c(O)c(C=O)c1COP(=O)(O)O [Example 38, 6-(5-Carboxy-2-methylphenylazo)-pyridoxal-5-phosphate]
[1]; [2]
  EC50: 50 µM
MT-4 cell line; human, 6 days
  CCIC50: >100 µM
HIV-1 integrase; [3]
  IC50: 2.3 µM

## Cc1nc(N=Nc2cccc(C(=O)O)c2Cl)c(COP(=O)(O)O)c(C=O)c1O [Example 39, 6-(3-Carboxy-2-chlorophenylazo)-pyridoxal-5-phosphate]
[1]; [2]
  EC50: 1.8 µM
MT-4 cell line; human, 6 days
  CCIC50: >100 µM
HIV-1 integrase; [3]
  IC50: 2.6 µM

## Cc1nc(N=Nc2cc(C(=O)O)ccc2Cl)c(COP(=O)(O)O)c(C=O)c1O [Example 40, 6-(5-Carboxy-2-chlorophenylazo)-pyridoxal-5-phosphate]
[1]; read-out: EC50
  EC50: 17 µM
MT-4 cell line; reduce cell survival by 50%, MTT assay, virus omitted
  CCIC50: >100 µM
HIV-1 integrase; concentration of drug required to reduce the enzyme activity by 50%, read-out: IC50
  IC50: 3.35 µM

## Cc1nc(N=Nc2cc(F)c(F)c(C(=O)O)c2F)c(COP(=O)(O)O)c(C=O)c1O [Example 41, 6-(3-Carboxy-2,4,5-trifluorophenylazo)-pyridoxal-5-phosphate]
[1]; [2]
  EC50: 14 µM
MT-4 cell line; human, 6 days
  CCIC50: >100 µM
HIV-1 integrase; [3]
  IC50: 2 µM

## Cc1nc(N=Nc2cccc(C(=O)O)c2C(=O)O)c(COP(=O)(O)O)c(C=O)c1O [Example 47, 6-(2,3-Dicarboxyphenylazo)-pyridoxal-5-phosphate]
[1]; [2]
  EC50: 10 µM
MT-4 cell line; human, 6 days
  CCIC50: 17 µM
HIV-1 integrase; [3]
  IC50: 0.165 µM

## Cc1nc(N=Nc2ccccc2C(=O)O)c(COP(=O)(O)O)c(C=O)c1O [Example 48, 6-(2-Carboxyphenylazo)-pyridoxal-5-phosphate]
[1]; [2]
  EC50: > 20 µM
MT-4 cell line; human, 6 days
  CCIC50: >100 µM
HIV-1 integrase; [3]
  IC50: 0.345 µM

## Cc1nc(N=Nc2cc(C(=O)O)cc(C(=O)O)c2)c(COP(=O)(O)O)c(C=O)c1O [Example 49, 6-(3,5-Dicarboxyphenylazo)-pyridoxal-5-phosphate Methanesulfonic Acid Salt]
[1]
  EC50: 0.275 µM
MT-4 cell line; human, 6 days
  CCIC50: 12 µM
HIV-1 integrase; [3]
  IC50: 0.5 µM

## Cc1nc(N=Nc2cc(C(=O)O)cc(C(=O)O)c2)c(COP(=O)(O)O)c(C=O)c1O [Example 50, 6-(3,5-Dicarboxyphenylazo)-pyridoxal-5-phosphate Penta-potassium Salt]
[1]
  EC50: 5 µM
MT-4 cell line; human, 6 days
  CCIC50: >100 µM
HIV-1 integrase; [3]
  IC50: 0.47 µM

## CCOC(OCC)c1c(O)c(C)nc(N=Nc2cc(C(=O)O)cc(C(=O)O)c2)c1COP(=O)(O)O [Example 51, 6-(3,5-Dicarboxyphenylazo)-pyridoxal-5-phosphate Diethylacetal]
[1]; [2]
  EC50: 0.35 µM
MT-4 cell line; human, 6 days
  CCIC50: >100 µM
HIV-1 integrase; [3]
  IC50: 0.125 µM

## Cc1nc(N=Nc2cc(C(=O)O)cc(C(=O)O)c2)c(COP(=O)(O)O)c(C=NO)c1O [Example 52, 6-(3,5-Dicarboxyphenylazo)-pyridoxal-5-phosphate Oxime]
[1]; [2]
  EC50: 15 µM
MT-4 cell line; human, 6 days
  CCIC50: 60 µM
HIV-1 integrase; [3]
  IC50: 8.75 µM
